# Measurements published in paper PMC6719666 (Acta Crystallographica. Section D, Structural Biology, 2019).
# Target: T1, BcGDHγα (Burkholderia cepacia, UniProt Q8GQE7)
# T1 construct: gene gdhAlpha; alpha (539 aa, 60 kDa) with C-terminal His tag; gamma 168 aa with signal peptide, mature 121 aa (13 kDa); pTrc99A, E. coli BL21(DE3); no beta-subunit; heterodimer; purified by Ni and cation exchange; with Glucose dehydrogenase gamma subunit (hitchhiker protein, small subunit)
# T1 sequence (Q8GQE7 1-539): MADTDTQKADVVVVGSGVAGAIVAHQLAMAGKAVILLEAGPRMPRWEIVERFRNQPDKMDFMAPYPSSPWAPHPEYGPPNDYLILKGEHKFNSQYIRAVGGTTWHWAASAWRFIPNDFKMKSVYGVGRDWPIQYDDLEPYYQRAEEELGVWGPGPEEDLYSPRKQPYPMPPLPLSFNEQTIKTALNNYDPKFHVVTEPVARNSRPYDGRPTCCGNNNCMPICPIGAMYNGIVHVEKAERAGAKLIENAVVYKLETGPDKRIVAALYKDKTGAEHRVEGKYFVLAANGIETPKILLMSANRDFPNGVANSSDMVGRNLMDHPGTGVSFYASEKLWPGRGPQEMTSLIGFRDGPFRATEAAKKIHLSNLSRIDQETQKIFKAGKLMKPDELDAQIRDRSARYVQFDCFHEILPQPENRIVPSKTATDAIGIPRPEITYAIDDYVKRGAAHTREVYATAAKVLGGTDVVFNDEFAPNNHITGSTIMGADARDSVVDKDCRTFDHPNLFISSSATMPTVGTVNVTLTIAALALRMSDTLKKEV
# T1 sequence (A0A0H3KLY3 48-168 partner): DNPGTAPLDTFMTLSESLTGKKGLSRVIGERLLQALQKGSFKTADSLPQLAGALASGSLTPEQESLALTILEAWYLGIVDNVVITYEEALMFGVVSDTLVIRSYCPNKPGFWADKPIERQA
# Test: X-ray crystal structure, […] Å
# Assay type: binding
# Details: covalent; C8M of FAD to His105 of the alpha-subunit
smiles,measurement,value
Cc1cc2nc3c(=O)[nH]c(=O)nc-3n(C[C@H](O)[C@H](O)[C@H](O)COP(=O)(O)OP(=O)(O)OC[C@H]3O[C@@H](n4cnc5c(N)ncnc54)[C@H](O)[C@@H]3O)c2cc1C [FAD],"X-ray crystal structure, 2.6 Å",a covalent bond was deemed to form between FAD and His105 in the α-subunit
